Data reported in ChEMBL document CHEMBL1147742, “Design and synthesis of photoaffinity-labeling ligands of the L-prolyl-L-leucylglycinamide binding site involved in the allosteric modulation of the dopamine receptor” (J Med Chem, 2006).
Activity calls are given as the source filed them. The rule behind the calls is not given here. Where a SMILES comes first, the peptide text is derived from it.

Assays:
[1] = target: D(2) dopamine receptor (Bos taurus) (UniProt P20288); test: Stimulation of [3H]NPA binding to dopamine D2 receptor in bovine striatal membranes; assay type: cell membranes; details: Striatum, Membrane
[2] = target: D(2) dopamine receptor (Bos taurus) (UniProt P20288); test: Stimulation of [3H]NPA binding to dopamine D2 receptor from bovine striatal membranes in presence of photoaffinity-labeling agents

Sequence of D(2) dopamine receptor (Bos taurus) (P20288 whole entry): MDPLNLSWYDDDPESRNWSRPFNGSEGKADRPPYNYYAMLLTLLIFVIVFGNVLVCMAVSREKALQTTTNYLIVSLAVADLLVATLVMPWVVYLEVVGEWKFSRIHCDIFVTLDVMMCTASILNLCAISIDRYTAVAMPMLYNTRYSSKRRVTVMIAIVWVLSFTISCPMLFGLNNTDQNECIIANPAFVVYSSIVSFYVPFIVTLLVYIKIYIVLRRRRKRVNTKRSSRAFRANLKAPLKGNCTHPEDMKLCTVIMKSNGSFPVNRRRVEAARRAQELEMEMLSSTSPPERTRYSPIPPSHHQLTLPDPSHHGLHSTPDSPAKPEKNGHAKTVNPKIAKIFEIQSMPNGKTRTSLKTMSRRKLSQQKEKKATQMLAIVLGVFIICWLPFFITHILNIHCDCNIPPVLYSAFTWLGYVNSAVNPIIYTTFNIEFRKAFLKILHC

## [N-]=[N+]=Nc1cc(O)c(C(=O)NCCNC(=O)CN2CC[C@@H](NC(=O)[C@@H]3CCCN3)C2=O)cc1I
[1]
  Activity: Active

## NC(=O)CN1CC[C@@H](NC(=O)[C@@H]2CCCN2)C1=O
[2]
  Activity: inactive
[1]
  Activity: 51.1%

## [N-]=[N+]=Nc1cc(O)c(C(=O)N[C@@H]2CN[C@H](C(=O)N[C@@H]3CCN(CC(N)=O)C3=O)C2)cc1I
[1]
  Activity: Active

## [N-]=[N+]=Nc1ccc(C(=O)NCCNC(=O)CN2CC[C@@H](NC(=O)[C@@H]3CCCN3)C2=O)c(O)c1
[1]
  Activity: Active

## CC(C)C[C@H](NC(=O)[C@@H]1CCCN1)C(=O)NCC(N)=O (H-Pro-Leu-Gly-NH2)
[2]
  Activity: inactive
[1]
  Activity: 24.5%

## [N-]=[N+]=Nc1ccc(C(=O)N[C@@H]2CN[C@H](C(=O)N[C@@H]3CCN(CC(N)=O)C3=O)C2)cc1
[1]
  Activity: Active

## [N-]=[N+]=Nc1ccc(C(=O)N[C@H]2CN[C@H](C(=O)N[C@@H]3CCN(CC(N)=O)C3=O)C2)c(O)c1
[1]
  Activity: Active

## [N-]=[N+]=Nc1ccc(C(=O)NCCNC(=O)CN2CC[C@@H](NC(=O)[C@@H]3CCCN3)C2=O)cc1
[1]
  Activity: Active

## [N-]=[N+]=Nc1ccc(C(=O)N[C@H]2CN[C@H](C(=O)N[C@@H]3CCN(CC(N)=O)C3=O)C2)cc1
[1]
  Activity: Active

## [N-]=[N+]=Nc1ccc(C(=O)N[C@@H]2CN[C@H](C(=O)N[C@@H]3CCN(CC(N)=O)C3=O)C2)c(O)c1
[1]
  Activity: Active
